According to PubChem BioAssay AID1117361 (Southern Research Institute, 2015):

Target: Protein Tat (Human immunodeficiency virus type 1 group M subtype B (isolate HXB2)) (UniProt P04608)
Assay: HIV-1 Tat–TAR interaction blockers – biochemical, fluorescence polarization, FAM-labeled TAR RNA, counter-screen for Vif-APOBEC3G degradation inhibitor project, dose response (AID 1117361)
Conditions: Tat-TAR RNA binding

Chain of Protein Tat (Human immunodeficiency virus type 1 group M subtype B (isolate HXB2)) (P04608 whole entry, looked up): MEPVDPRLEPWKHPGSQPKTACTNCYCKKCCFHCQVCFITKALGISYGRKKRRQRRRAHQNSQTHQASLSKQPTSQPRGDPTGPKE

Question: For `Cc1ccccc1NC(=O)CSc1nnc(-c2ccco2)c(-c2ccco2)n1`, which IC50 is on record?
Answer: 2.73 µM

Question: How did the IC50 turn out when `O=C(O)c1ccc(Cl)c2c1C1C=CCC1C(c1ccccn1)N2` (centres undefined) was run?
Answer: 2.81 µM

Question: With `CCCSC1=N/C(=C\c2ccc([N+](=O)[O-])o2)C(=O)S1` as the compound, how does the IC50 read?
Answer: 7.37 µM

Question: Which IC50 does the source give for `CC(C)(C)C1C/C(=C/c2ccco2)C(=O)/C(=C/c2ccco2)C1` (centres undefined) here?
Answer: 7.08 µM

Question: How did the IC50 turn out when `O=[N+]([O-])c1cc2oc3c(c2c(C=NCc2ccncc2)c1O)CCCC3` was run?
Answer: 13.4 µM

Question: `O/C=c1\ccc2cccc3nc(C(F)(F)F)nc1c23` was tested. Which IC50 did it give?
Answer: 2.92 µM

Question: How did the IC50 turn out when `CC(=O)c1ccc2c(c1)C1C=CCC1C(C(=O)O)N2` (centres undefined) was run?
Answer: 2.47 µM

Question: For `Cc1cc(C(=O)CSc2nnnn2-c2ccccc2)c(C)n1CC1CCCO1` (centres undefined), which IC50 is on record?
Answer: 35 µM

Question: How did the IC50 turn out when `C=C(C)C(=O)Nc1cccc(C2=NOC3(C2)C[C@@H](C(N)=O)N(C(=O)/C=C/CC)C3)c1` (some centres undefined) was run?
Answer: 24.5 µM

Question: For `COC1=C(N)C(=O)c2nc(-c3nc(C(=O)O)c(C)c(-c4ccc(OC)c(OC)c4O)c3N)ccc2C1=O`, which IC50 is on record?
Answer: 42.1 µM

Question: Which IC50 does the source give for `CC(=O)Nc1ccc(S(=O)(=O)Nc2nc3ccccc3nc2Nc2ccc(N)cc2)cc1` here?
Answer: 43.3 µM

Question: `Cc1c(O)cc2c(c1O)C(=O)CC(c1ccc(O)cc1)O2` (centres undefined) was tested. Which IC50 did it give?
Answer: 37.2 µM

Question: Which IC50 does the source give for `CCOC(=O)CNc1ccc2c(c1)OCO2` here?
Answer: 1.47 µM

Question: Which IC50 does the source give for `C(=C\c1ccco1)/c1ccc2ccccc2n1` here?
Answer: 9.39 µM

Question: Which IC50 does the source give for `O=C1NC(=S)S/C1=C\c1ccc(SCc2ccco2)o1` here?
Answer: 0.926 µM

Question: How did the IC50 turn out when `O=C(/C=C/c1ccco1)N(c1ccccn1)c1ccccn1` was run?
Answer: 7.9 µM

Question: How did the IC50 turn out when `CCOc1cccc(OCC)c2c(C)[n+](CC3CCCO3)c(C)c1-2` (centres undefined) was run?
Answer: 4.16 µM

Question: Which IC50 does the source give for `CCOc1ccccc1C(O)C1=CC(=O)c2ccccc2C1=O` (centres undefined) here?
Answer: 77.7 µM

Question: How did the IC50 turn out when `CCN(CC)Cc1cc(O)c(CN(CC)CC)cc1O` was run?
Answer: 4.37 µM

Question: How did the IC50 turn out when `CN(C)c1ccc(O)c2c1CC1CC3[C@@H](N(C)C)C(=O)C(C(N)=O)=C(O)[C@]3(O)C(=O)C1=C2O` (some centres undefined) was run?
Answer: 6.14 µM

Question: `COc1ccc(NC(=S)NCCc2ccccc2OC)c(OC)c1` was tested. Which IC50 did it give?
Answer: 13.7 µM

Question: `COc1ccc(OC)c(S(=O)(=O)Nc2ccc(O)c3ccccc23)c1` was tested. Which IC50 did it give?
Answer: 83 µM

Question: Which IC50 does the source give for `COC(=O)C1C(O)C(C)C(O)C(C)(O)/C=C\C=C(/C)C(=O)Nc2c(C)c(OC(C)=O)c3c(c2O)C(=O)C(C)=C2OCOC(=C23)/C(C)=C/C(C)(O)C(O)C(C)C1O` (centres undefined) here?
Answer: 54.6 µM

Question: `O=C(NCCc1ccccc1)c1ccc2nc(-c3ccco3)c(-c3ccco3)nc2c1` was tested. Which IC50 did it give?
Answer: 33.1 µM

Question: `Cn1cccc1/C=C1/C(=O)NC(=O)N(Cc2ccccc2)C1=O` was tested. Which IC50 did it give?
Answer: 67 µM

Question: For `O=C1NC(=O)C(=Cc2ccc(SC3CCCCC3)o2)C(=O)N1`, which IC50 is on record?
Answer: 30.9 µM

Question: With `COC(=O)c1ccc(CC(=O)c2c(C)cc(O)cc2O)o1` as the compound, how does the IC50 read?
Answer: 11.2 µM

Question: How did the IC50 turn out when `O=C(N/N=C/C=C/c1ccco1)c1cccs1` was run?
Answer: 11.6 µM

Question: `O=C(NN1C(=O)/C(=C/C=C/c2ccco2)SC1=S)c1ccncc1` was tested. Which IC50 did it give?
Answer: 2.69 µM

Question: With `O=C1CC(/C=C/c2ccco2)=Nc2ccccc2N1` as the compound, how does the IC50 read?
Answer: 6.84 µM

Question: `c1cn2cc(CSC3CCCCC3)nc2s1` was tested. Which IC50 did it give?
Answer: 63.8 µM

Question: For `C[c-]1[c-](C)[c-](C)[c-](C)[c-]1C.[Fe].c1cc2nccc(N3CCCC3)[c-]2c1` (centres undefined), which IC50 is on record?
Answer: 2.81 µM

Question: How did the IC50 turn out when `N#C/C(=C\c1ccc([N+](=O)[O-])o1)C(=O)Nc1ccc(F)cc1` was run?
Answer: 55.6 µM

Question: How did the IC50 turn out when `CC1(C)CCCN(C(=O)c2coc(=O)c(Br)c2)C1` was run?
Answer: 7.77 µM

Question: With `Cc1cccc(C)c1NC(=O)CSc1nnc(-c2ccco2)c(-c2ccco2)n1` as the compound, how does the IC50 read?
Answer: 6.43 µM

Question: `Cc1ccc(N(CC(=O)NCCSCc2ccco2)S(=O)(=O)c2ccc(F)cc2)cc1` was tested. Which IC50 did it give?
Answer: 63.7 µM

Question: `COc1ccc(NC(=O)c2cc(-c3ccco3)nc3ccccc23)cc1S(=O)(=O)N1CCOCC1` was tested. Which IC50 did it give?
Answer: 19.3 µM

Question: Which IC50 does the source give for `Cc1nc2c(=O)[nH]c(=S)[nH]c2[nH]c1=O` here?
Answer: 13.2 µM

Question: `c1ccc2c(c1)CCCN2Cc1nnc2n1CCCCC2` was tested. Which IC50 did it give?
Answer: 4.29 µM

Question: How did the IC50 turn out when `CCOC(=O)Cn1nnnc1C(C(C)C)N(Cc1cc2c(C)cc(C)cc2[nH]c1=O)C1CCCC1` (centres undefined) was run?
Answer: 67.6 µM

Question: Which IC50 does the source give for `O=C(O)COc1ccc2c(c1)O/C(=C\c1ccco1)C2=O` here?
Answer: 53.1 µM

Question: With `CCCCn1c(=NC(=O)c2cccnc2)c(C#N)cc2c(=O)n3cccc(C)c3nc21` as the compound, how does the IC50 read?
Answer: 4.74 µM

Question: Which IC50 does the source give for `O=C(Nc1ccn(-c2ccccc2)n1)c1ccccc1Br` here?
Answer: 30.2 µM

Question: Which IC50 does the source give for `NS(=O)(=O)c1ccc2c(c1)C1C=CCC1C(C1CC=CCC1)N2` (centres undefined) here?
Answer: 9.98 µM

Question: Which IC50 does the source give for `CCc1cc(=O)oc2cc(C)c(CN3CCCC3)c(O)c12` here?
Answer: 5.84 µM

Question: Which IC50 does the source give for `CCOc1cccc(=O)c2c(C)n(-c3ccc(C(=O)O)cc3)c(C)c12` here?
Answer: 3.3 µM

Question: Which IC50 does the source give for `Cc1cc(C)cc(Nc2ccc(C(=O)O)cc2N)c1` here?
Answer: 47.1 µM

Question: For `O=C1NC(=S)N(c2ccccc2)C(=O)/C1=C/c1ccco1`, which IC50 is on record?
Answer: 16.2 µM

Question: For `N=C1/C(=C/c2ccc(Br)o2)C(=O)N=C2SC(CC(=O)N3CCCC3)=NN12`, which IC50 is on record?
Answer: 53.7 µM
